Test: in vitro
Conditions: for Concentration (μM) of analyte PEA, 0 min / Concentration (μM) of analyte PEA, 10 min / Concentration (μM) of analyte PEA, 20 min / Concentration (μM) of analyte PEA, 30 min / Concentration (μM) of analyte PEA, 60 min / % Remaining of Initial (n = 1), 0 min / % Remaining of Initial (n = 1), 10 min / % Remaining of Initial (n = 1), 20 min / % Remaining of Initial (n = 1), 30 min / % Remaining of Initial (n = 1), 60 min: 1 μM; for % Remaining of Initial (n = 1), 0 min: s9, 0 h; for % Remaining of Initial (n = 1), 10 min: s9, 10 min; for % Remaining of Initial (n = 1), 20 min: s9, 20 min; for % Remaining of Initial (n = 1), 30 min: s9, 0.5 h; for % Remaining of Initial (n = 1), 60 min: s9, 1 h; for half-life at 1 μM: s9, Half-life (min)
Protocol: Reaction mixture, minus cofactors, was prepared as described below. Test article was added into the reaction mixture at a final concentration of 1 μM. […] An aliquot of the reaction mixture (without cofactor cocktail) was equilibrated in a shaking water bath at 37° C. for 3 minutes. The reaction was initiated by the addition of cofactor cocktail (see below), and the mixture was then incubated in a shaking water bath at 37° C. Aliquots (100 μL) were withdrawn 0, 10, 20, 30 and 60 minutes. Test article samples were immediately combined with 300 μL of ice-cold acetonitrile containing 1% formic acid. Control samples were immediately combined with 400 μL of ice-cold 50/50 acetonitrile (ACN)/dH2O containing 0.1% formic acid and internal standard to terminate the reaction. Samples were then mixed and centrifuged to precipitate proteins. Calibration standards were prepared in matched matrix. Samples and standards were assayed by LC-MS/MS using electrospray ionization for both the dosed prodrug and the expected drug (PEA). Analytical conditions are outlined in Appendix 8-1. Test article concentration at each time point was compared to the test article concentration at time 0 to determine the percent remaining at each time point. Half-lives were calculated using GraphPad software, fitting to a single-phase exponential decay equation.
Reaction mixture, minus cofactors, was prepared as described below. Test article was added into the reaction mixture at a final concentration of 1 μM. […] An aliquot of the reaction mixture (without cofactor cocktail) was equilibrated in a shaking water bath at 37° C. for 5 minutes. Reaction was initiated by the addition of cofactor cocktail (see below), and mixture was then incubated in a shaking water bath at 37° C. Aliquots (100 μL) were withdrawn at 0, 10, 20, 30, and 60 minutes. Test article samples were immediately combined with 300 μL of ice-cold acetonitrile containing 1% formic acid. Control samples were immediately combined with 400 μL of ice-cold 50/50 acetonitrile (ACN)/dH2O containing 0.1% formic acid and internal standard to terminate the reaction. Samples were then mixed and centrifuged to precipitate proteins. Calibration standards were prepared in matched matrix. Samples and standards were assayed by LC-MS/MS using electrospray ionization for both dosed prodrug and expected drug (PEA). Analytical conditions are outlined in Appendix 10-1. Test article concentration at each time point was compared to test article concentration at time 0 to determine the percent remaining at each time point. Half-lives were calculated using GraphPad software, fitting to a single-phase exponential decay equation.
The reaction mixture, minus cofactors, was prepared as described below. Test article was added into the reaction mixture at a final concentration of 1 μM. […] An aliquot of the reaction mixture (without cofactor cocktail) was equilibrated in a shaking water bath at 37° C. for 3 minutes. Reaction was initiated by the addition of cofactor cocktail (see below), and the mixture was then incubated in a shaking water bath at 37° C. Aliquots (100 μL) were withdrawn at 0, 10, 20, 30, and 60 minutes. Test article samples were immediately combined with 300 μL of ice-cold acetonitrile containing 1% formic acid. Control samples were immediately combined with 400 μL of ice-cold 50/50 acetonitrile (ACN)/dH2O containing 0.1% formic acid and internal standard to terminate the reaction. Samples were then mixed and centrifuged to precipitate proteins. Calibration standards were prepared in matched matrix. Samples and standards were assayed by LC-MS/MS using electrospray ionization for both dosed prodrug and expected drug (PEA). Analytical conditions are outlined in Appendix 13-1. Test article concentration at each time point was compared to the test article concentration at time 0 to determine the percent remaining at each time point.

Compound: CCCCC/C=C\C/C=C\CCCCCCCC(=O)OCCNC(=O)CCCCCCCCCCCCCCC [Compound I-6]
- Concentration (μM) of analyte PEA, 0 min (both, human): 0.014 µM
- Concentration (μM) of analyte PEA, 10 min (both, human): 0.037 µM
- Concentration (μM) of analyte PEA, 20 min (both, human): 0.022 µM
- Concentration (μM) of analyte PEA, 30 min (both, human): 0.022 µM
- Concentration (μM) of analyte PEA, 60 min (both, human): 0.016 µM
- % Remaining of Initial (n = 1), 0 min (both, human): 100%
- % Remaining of Initial (n = 1), 10 min (both, human): 80%
- % Remaining of Initial (n = 1), 20 min (both, human): 102%
- % Remaining of Initial (n = 1), 30 min (both, human): 95%
- % Remaining of Initial (n = 1), 60 min (both, human): 77%
- half-life at 1 μM (both, human): > 1 h
- Concentration (μM) of analyte PEA, 0 min (male, Beagle, dog): 0.016 µM
- Concentration (μM) of analyte PEA, 10 min (male, Beagle, dog): 0.044 µM
- Concentration (μM) of analyte PEA, 20 min (male, Beagle, dog): 0.041 µM
- Concentration (μM) of analyte PEA, 30 min (male, Beagle, dog): 0.049 µM
- Concentration (μM) of analyte PEA, 60 min (male, Beagle, dog): 0.037 µM
- % Remaining of Initial (n = 1), 0 min (male, Beagle, dog): 100%
- % Remaining of Initial (n = 1), 10 min (male, Beagle, dog): 101%
- % Remaining of Initial (n = 1), 20 min (male, Beagle, dog): 106%
- % Remaining of Initial (n = 1), 30 min (male, Beagle, dog): 102%
- % Remaining of Initial (n = 1), 60 min (male, Beagle, dog): 110%
- half-life at 1 μM (male, Beagle, dog): > 1 h
- Concentration (μM) of analyte PEA, 0 min (male, CD-1, mouse): 0.030 µM
- Concentration (μM) of analyte PEA, 10 min (male, CD-1, mouse): 0.041 µM
- Concentration (μM) of analyte PEA, 20 min (male, CD-1, mouse): 0.033 µM
- Concentration (μM) of analyte PEA, 30 min (male, CD-1, mouse): 0.031 µM
- Concentration (μM) of analyte PEA, 60 min (male, CD-1, mouse): 0.015 µM
- % Remaining of Initial (n = 1), 0 min (male, CD-1, mouse): 100%
- % Remaining of Initial (n = 1), 10 min (male, CD-1, mouse): 87%
- % Remaining of Initial (n = 1), 20 min (male, CD-1, mouse): 87%
- % Remaining of Initial (n = 1), 30 min (male, CD-1, mouse): 99%
- % Remaining of Initial (n = 1), 60 min (male, CD-1, mouse): 75%
- half-life at 1 μM (male, CD-1, mouse): > 1 h
- Concentration (μM) of analyte PEA, 0 min (male, Sprague-Dawley, rat): 0.020 µM
- Concentration (μM) of analyte PEA, 10 min (male, Sprague-Dawley, rat): 0.035 µM
- Concentration (μM) of analyte PEA, 20 min (male, Sprague-Dawley, rat): 0.021 µM
- Concentration (μM) of analyte PEA, 30 min (male, Sprague-Dawley, rat): 0.021 µM
- Concentration (μM) of analyte PEA, 60 min (male, Sprague-Dawley, rat): 0.013 µM
- % Remaining of Initial (n = 1), 0 min (male, Sprague-Dawley, rat): 100%
- % Remaining of Initial (n = 1), 10 min (male, Sprague-Dawley, rat): 64%
- % Remaining of Initial (n = 1), 20 min (male, Sprague-Dawley, rat): 82%
- % Remaining of Initial (n = 1), 30 min (male, Sprague-Dawley, rat): 93%
- % Remaining of Initial (n = 1), 60 min (male, Sprague-Dawley, rat): 89%
- half-life at 1 μM (male, Sprague-Dawley, rat): > 1 h

Compound: CCCCCCCCCCCCCCCC(=O)NCCOC(=O)CCC(=O)OCC(O)CO (stereo not drawn) [Compound I-9]
- Concentration (μM) of analyte PEA, 0 min (both, human): 0.35 µM
- Concentration (μM) of analyte PEA, 10 min (both, human): 0.30 µM
- Concentration (μM) of analyte PEA, 20 min (both, human): 0.18 µM
- Concentration (μM) of analyte PEA, 30 min (both, human): 0.088 µM
- Concentration (μM) of analyte PEA, 60 min (both, human): 0.028 µM
- % Remaining of Initial (n = 1), 0 min (both, human): 100%
- % Remaining of Initial (n = 1), 10 min (both, human): <1.0%
- % Remaining of Initial (n = 1), 20 min (both, human): <1.0%
- % Remaining of Initial (n = 1), 30 min (both, human): <1.0%
- % Remaining of Initial (n = 1), 60 min (both, human): <1.0%
- half-life at 1 μM (both, human): < 0.0167 h
- Concentration (μM) of analyte PEA, 0 min (male, Beagle, dog): 0.32 µM
- Concentration (μM) of analyte PEA, 10 min (male, Beagle, dog): 0.29 µM
- Concentration (μM) of analyte PEA, 20 min (male, Beagle, dog): 0.21 µM
- Concentration (μM) of analyte PEA, 30 min (male, Beagle, dog): 0.18 µM
- Concentration (μM) of analyte PEA, 60 min (male, Beagle, dog): 0.078 µM
- % Remaining of Initial (n = 1), 0 min (male, Beagle, dog): 100%
- % Remaining of Initial (n = 1), 10 min (male, Beagle, dog): <1.0%
- % Remaining of Initial (n = 1), 20 min (male, Beagle, dog): <1.0%
- % Remaining of Initial (n = 1), 30 min (male, Beagle, dog): <1.0%
- % Remaining of Initial (n = 1), 60 min (male, Beagle, dog): <1.0%
- half-life at 1 μM (male, Beagle, dog): < 0.0167 h
- Concentration (μM) of analyte PEA, 0 min (male, CD-1, mouse): 0.52 µM
- Concentration (μM) of analyte PEA, 10 min (male, CD-1, mouse): 0.23 µM
- Concentration (μM) of analyte PEA, 20 min (male, CD-1, mouse): 0.13 µM
- Concentration (μM) of analyte PEA, 30 min (male, CD-1, mouse): 0.077 µM
- Concentration (μM) of analyte PEA, 60 min (male, CD-1, mouse): 0.022 µM
- % Remaining of Initial (n = 1), 0 min (male, CD-1, mouse): 100%
- % Remaining of Initial (n = 1), 10 min (male, CD-1, mouse): <1.0%
- % Remaining of Initial (n = 1), 20 min (male, CD-1, mouse): <1.0%
- % Remaining of Initial (n = 1), 30 min (male, CD-1, mouse): <1.0%
- % Remaining of Initial (n = 1), 60 min (male, CD-1, mouse): <1.0%
- half-life at 1 μM (male, CD-1, mouse): < 0.0167 h
- Concentration (μM) of analyte PEA, 0 min (male, Sprague-Dawley, rat): 0.20 µM
- Concentration (μM) of analyte PEA, 10 min (male, Sprague-Dawley, rat): 0.31 µM
- Concentration (μM) of analyte PEA, 20 min (male, Sprague-Dawley, rat): 0.18 µM
- Concentration (μM) of analyte PEA, 30 min (male, Sprague-Dawley, rat): 0.11 µM
- Concentration (μM) of analyte PEA, 60 min (male, Sprague-Dawley, rat): 0.029 µM
- % Remaining of Initial (n = 1), 0 min (male, Sprague-Dawley, rat): 100%
- % Remaining of Initial (n = 1), 10 min (male, Sprague-Dawley, rat): 13%
- % Remaining of Initial (n = 1), 20 min (male, Sprague-Dawley, rat): 2.1%
- % Remaining of Initial (n = 1), 30 min (male, Sprague-Dawley, rat): <1.0%
- % Remaining of Initial (n = 1), 60 min (male, Sprague-Dawley, rat): <1.0%
